Patent US20140341813A1, “INDOCYANINE GREEN-CONTAINING PARTICLE AND METHOD OF PRODUCING THE PARTICLE” (CANON KABUSHIKI KAISHA, priority 2013, published 2014)

Key:
[1] = Spectral shift of ICG aqueous solutions before and after heating (J-aggregate formation and suppression); type: physicochemical
Procedure: FIG. 4 and FIG. 5 show the results of wavelength shifts based on additive concentration series. […] The axis of abscissa of each square indicates a wavelength, and values at its left and right ends are 500 nm and 950 nm, respectively, and the axis of ordinate thereof indicates an absorbance and its scale is arbitrary. The additive in this case refers to urea.
A third square from the left end corresponds to a solution to which the additive is added at a concentration one-half as high as that of the second square.
A second square from the left end corresponds to a 1.5 mM ICG aqueous solution, and an upper stage and a lower stage show spectra before and after the heating, respectively. A third square corresponds to an ICG aqueous solution having a concentration one-half as high as that of the second square.

Water solubility of urea = type: physicochemical; conditions: calculated from water solubility and molecular weight 60.06
rat [2] = conditions: intravenous injection; cited from earlier work
mouse = conditions: intravenous injection; cited from earlier work
rat [3] = conditions: oral; cited from earlier work
rat [4] = test: Urea 50% lethal dose LD50, oral

| SMILES | J-aggregate formation of ICG in citric acid after heating ([1]; 1.5 mM ICG, citric acid 100 mM or less, free of urea, 60° C. for 30 minutes) | citric acid concentration above which agglomeration precipitation occurs ([1]; 1.5 mM ICG, free of urea, 60° C. for 30 minutes) | J-aggregation of ICG after heating with urea added ([1]; 1.5 mM ICG aqueous solution + 100 mM urea, heating at 60° C. for 30 minutes) | formation of the H-aggregate of ICG (absorption around 700 nm) with urea added ([1]; 1.5 mM ICG, urea added) | amount of urea that dissolves (molar) (Water solubility of urea) | LD50 (rat [2]) | LD50 (mouse) | 50% lethal dose LD50 (rat [3]) | ratio of urea amount in 10 ml of injection at 10 M to LD50 in terms of a body weight of 50 kg (rat [4]; 6.006 g/425 g) | 50% lethal dose converted in terms of a body weight of 50 kg (rat [4]; 8.5 g/kg × 50 kg) |
| --- | --- | --- | --- | --- | --- | --- | --- | --- | --- | --- |
| O=C(O)CC(O)(CC(=O)O)C(=O)O [citric acid] | a J-aggregate is formed | higher than 12.5 mM | – | – | – | – | – | – | – | – |
| NC(N)=O [urea] | – | – | the J-aggregation is suppressed | suppresses the formation of the H-aggregate | up to 17.9 M | around 5,000 mg/kg | around 5,000 mg/kg | 8,500 mg/kg | 1.41×10^−2 | 425 g |
